In PubChem BioAssay (NCI):
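How tested: cells in 96-well plates exposed to compound for 48 hours at five concentrations. Definition used: TGI = concentration required for complete inhibition of growth.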

Tests used:
Experiment in all cases: NCI tumour cell line growth inhibition, 48 h
A498 renal = tested on: A498 renal
ACHN renal = tested on: ACHN renal
CCRF-CEM leukemia = tested on: CCRF-CEM leukemia
COLO 205 colon = tested on: COLO 205 colon
DU-145 prostate = tested on: DU-145 prostate
HCC-2998 colon = tested on: HCC-2998 colon
HCT-116 colon = tested on: HCT-116 colon
HOP-92 NSCLC = tested on: HOP-92 NSCLC
HS 578T breast = tested on: HS 578T breast
SF-268 CNS = tested on: SF-268 CNS
SF-539 CNS = tested on: SF-539 CNS
SK-OV-3 ovarian = tested on: SK-OV-3 ovarian
SNB-75 CNS = tested on: SNB-75 CNS
U251 CNS = tested on: U251 CNS
MDA-N = tested on: MDA-N
MDA-MB-435 = tested on: MDA-MB-435

| SMILES | TGI (A498 renal) [µM] | TGI (ACHN renal) [µM] | TGI (CCRF-CEM leukemia) [µM] | TGI (COLO 205 colon) [µM] | TGI (DU-145 prostate) [µM] | TGI (HCC-2998 colon) [µM] | TGI (HCT-116 colon) [µM] | TGI (HOP-92 NSCLC) [µM] | TGI (HS 578T breast) [µM] | TGI (SF-268 CNS) [µM] | TGI (SF-539 CNS) [µM] | TGI (SK-OV-3 ovarian) [µM] | TGI (SNB-75 CNS) [µM] | TGI (U251 CNS) [µM] | TGI (MDA-N) [µM] | TGI (MDA-MB-435) [µM] |
| --- | --- | --- | --- | --- | --- | --- | --- | --- | --- | --- | --- | --- | --- | --- | --- | --- |
| COc1ccc2c(c1)nc1n2C(c2c(F)cccc2Cl)SC1 (stereo not given) | > 29.7 | > 82.9 | > 100 | > 54.9 | > 29.3 | > 39.8 | > 37 | > 100 | 6.4 | 90.6 | 16.1 | > 38.1 | 7.85 | > 35.4 | – | – |
| COC(=O)/C=C1/N=C(N(C)/N=C/c2ccccc2)NC1=O | – | – | > 100 | > 100 | > 100 | > 100 | > 100 | – | > 100 | > 100 | > 100 | > 100 | > 100 | – | > 100 | – |
| COc1ccc([N-]/C(=N\n2c(=O)c(C)nn(C)c2=S)N(c2ccc(OC)cc2)c2nn3c(=O)c(C)n[n+](C)c3s2)cc1 | > 100 | > 100 | > 100 | > 100 | – | – | > 100 | > 100 | – | > 100 | > 100 | – | > 100 | > 100 | – | – |
| NCC(NC(=O)OCc1ccccc1)C(=O)O (stereo not given) | > 50 | > 50 | > 50 | > 50 | – | > 50 | > 50 | > 50 | – | > 50 | > 50 | > 50 | > 50 | > 50 | – | – |
| C=C(C)[C@@]1(O)CCC[C@H]1NC(=O)OC(C)(C)C | > 100 | > 100 | > 100 | > 100 | > 100 | > 100 | > 100 | > 100 | – | > 100 | – | > 100 | > 100 | > 100 | > 100 | > 100 |
| C[C@@H](NC(=O)OC1C=CC2(CC1)C(=O)N(C)c1ccccc12)c1cccc2ccccc12 (stereo not given in full) | > 25 | > 25 | > 25 | > 25 | > 25 | > 25 | > 25 | > 25 | – | > 25 | – | > 25 | > 25 | > 25 | > 25 | > 25 |
| Cc1ccc(CS(=O)(=O)C/N=c2\sc3ccccc3nc2/C=C(\O)c2ccc(Cl)cc2)cc1 | – | > 10 | – | > 10 | > 10 | > 10 | > 10 | > 10 | > 10 | > 10 | > 10 | > 10 | > 10 | > 10 | > 10 | > 10 |
| O=P1(Oc2ccc(Cl)cc2)OCCS1 (stereo not given) | > 100 | > 100 | > 100 | > 100 | > 100 | > 100 | > 100 | > 100 | > 100 | > 100 | > 100 | > 100 | > 100 | > 100 | > 100 | – |
| CC(=O)NCCc1c[nH]c2ccc(Cl)cc12 | – | > 100 | > 100 | > 100 | > 100 | > 100 | > 100 | > 100 | > 100 | > 100 | > 100 | > 100 | > 100 | > 100 | > 100 | > 100 |
| CC(C)OP(=O)(OC(C)C)/C(=N/N)NNc1ccc([N+](=O)[O-])cc1 | > 100 | > 100 | > 100 | > 100 | – | > 100 | > 100 | > 100 | – | > 100 | > 100 | – | > 100 | > 100 | – | – |
| O=c1cc(CC(O)(C(F)(F)Cl)C(F)(F)Cl)[nH]n1-c1ccccc1 | > 100 | > 100 | > 100 | > 100 | > 100 | > 100 | > 100 | > 100 | > 100 | > 100 | > 100 | > 100 | > 100 | > 100 | – | > 100 |
| CCOc1ccc(N=Nc2ccc3oc(=O)c(C(=O)Nc4ccc(OC)cc4)cc3c2)cc1 | > 100 | – | 25.4 | > 100 | – | 36.8 | 26.2 | – | – | 78.4 | 51 | 84.8 | 93.7 | 61.1 | – | – |
| CC1(C)C2CCC3(OCCO3)C1C1OC12 (stereo not given) | > 100 | > 100 | > 100 | > 100 | – | – | > 100 | > 100 | – | > 100 | > 100 | > 100 | > 100 | > 100 | – | – |
| OCC1OC(n2nc(-c3ccccc3)nc2-c2cnccn2)C(O)C1O (stereo not given) | – | – | > 100 | > 100 | > 100 | > 100 | > 100 | > 100 | – | > 100 | > 100 | > 100 | > 100 | > 100 | > 100 | > 100 |
| CN(C)CC(CO)(CN(C)C)CN(C)C | – | > 100 | > 100 | > 100 | > 100 | – | > 100 | > 100 | – | > 100 | > 100 | > 100 | > 100 | > 100 | > 100 | – |
| O=c1c2cc(Br)cc(Br)c2[nH]c(=S)n1-c1ccccc1 | > 100 | > 100 | > 100 | > 100 | – | > 100 | > 100 | > 100 | – | > 100 | > 100 | > 100 | > 100 | > 100 | – | – |
| CN1CCN(C(=S)N(C(=O)c2ccco2)c2ccccc2)CC1 | – | > 100 | > 100 | > 100 | > 100 | > 100 | – | > 100 | > 100 | > 100 | – | – | > 100 | > 100 | > 100 | > 100 |
